Assay results as given in ChEMBL document CHEMBL4627287, “Synthesis and biological evaluation of novel pyrazolo[3,4-b]pyridines as cis-restricted combretastatin A-4 analogues” (Bioorg Med Chem Lett, 2020).

How the values were obtained:
[1] = system: HeLa; assay: Antiproliferative activity against human HeLa cells assessed as cell growth inhibition measured after 48 hrs by MTT assay; format: functional, cell-based
[2] = system: KYSE-150 cell line; assay: Antiproliferative activity against human KYSE-150 cells assessed as cell growth inhibition measured after 48 hrs by MTT assay; format: functional, cell-based; conditions: KYSE-150, 48 h
[3] = system: MCF7; assay: Antiproliferative activity against human MCF7 cells assessed as cell growth inhibition measured after 48 hrs by MTT assay; format: functional, cell-based; conditions: MCF7, 48 h
[4] = system: MDA-MB-231; assay: Antiproliferative activity against human MDA-MB-231 cells assessed as cell growth inhibition measured after 48 hrs by MTT assay; format: functional, cell-based; conditions: MDA-MB-231, 48 h
[5] = target: Tubulin (Homo sapiens) (UniProt P68371+Q9H4B7+P0DPH7+P68366+Q13509+Q71U36+P04350+Q3ZCM7+P07437+P68363+Q9BQE3+Q6PEY2+Q13885+Q9BVA1+Q9BUF5); assay: Inhibition of tubulin polymerization (unknown origin) at 10 uM relative to control; format: protein-complex assay
[6] = system: HeLa; assay: Cell cycle arrest in human HeLa cells assessed as accumulation at G0/G1 phase at 9 uM measured after 24 hrs by propidium iodide staining based flow cytometry analysis (reference value: 67.86 %); format: functional
[7] = system: HeLa; assay: Cell cycle arrest in human HeLa cells assessed as accumulation at G2/M phase measured after 24 hrs by propidium iodide staining based flow cytometry analysis; format: functional
[8] = system: HeLa; assay: Cell cycle arrest in human HeLa cells assessed as accumulation at G2/M phase at 18 uM measured after 24 hrs by propidium iodide staining based flow cytometry analysis (reference value: 13.92 %); format: functional
[9] = system: HeLa; assay: Cell cycle arrest in human HeLa cells assessed as accumulation at G0/G1 phase at 18 uM measured after 24 hrs by propidium iodide staining based flow cytometry analysis (reference value: 67.86 %); format: functional
[10] = system: HeLa; assay: Cell cycle arrest in human HeLa cells assessed as accumulation at G2/M phase at 36 uM measured after 24 hrs by propidium iodide staining based flow cytometry analysis (reference value: 13.92 %); format: functional
[11] = system: HeLa; assay: Cell cycle arrest in human HeLa cells assessed as accumulation at S phase at 36 uM measured after 24 hrs by propidium iodide staining based flow cytometry analysis (reference value: 18.92 %); format: functional
[12] = system: HeLa; assay: Cell cycle arrest in human HeLa cells assessed as accumulation at G2/M phase at 9 uM measured after 24 hrs by propidium iodide staining based flow cytometry analysis (reference value: 13.92 %); format: functional
[13] = system: HeLa; assay: Cell cycle arrest in human HeLa cells assessed as accumulation at G0/G1 phase at 36 uM measured after 24 hrs by propidium iodide staining based flow cytometry analysis (reference value: 67.86 %); format: functional
[14] = system: HeLa; assay: Cell cycle arrest in human HeLa cells assessed as accumulation at S phase at 9 uM measured after 24 hrs by propidium iodide staining based flow cytometry analysis (reference value: 18.92 %); format: functional
[15] = system: HeLa; assay: Cell cycle arrest in human HeLa cells assessed as accumulation at S phase at 18 uM measured after 24 hrs by propidium iodide staining based flow cytometry analysis (reference value: 18.92 %); format: functional

Row | SMILES | IC50 [1] [µM] | IC50 [2] [µM] | IC50 [3] [µM] | IC50 [4] [µM] | also measured
1 | COc1cc(F)ccc1-c1nn(-c2cc(OC)c(OC)c(OC)c2)c2ncccc12 | 58.3 | 87.4 | 87.6 | 47 | inhibition [5]: 20%
2 | COc1cc(-c2nn(Cc3ccc(C)cc3)c3ncccc23)cc(OC)c1OC | > 100 | > 100 | > 100 | > 100 | –
3 | COc1cccc(-c2nn(-c3cc(OC)c(OC)c(OC)c3)c3ncccc23)c1 | 85 | > 100 | 86.9 | 86.7 | –
4 | COc1cc(-c2nn(-c3ccc(C(=O)NN)cc3)c3ncccc23)cc(OC)c1OC | 29.7 | > 100 | 65.2 | > 100 | –
5 | COc1ccc(-c2nn(-c3cc(OC)c(OC)c(OC)c3)c3ncccc23)cc1[N+](=O)[O-] | 23.5 | > 100 | 28.4 | 37.3 | inhibition [5]: 16%
6 | COc1ccc(-n2nc(-c3cc(OC)c(OC)c(OC)c3)c3cccnc32)cc1OC | > 100 | > 100 | > 100 | > 100 | –
7 | COc1ccc(-c2nn(-c3cc(OC)c(OC)c(OC)c3)c3ncccc23)cc1O | 18.1 | 62.8 | 27.2 | 27 | Activity [6]: 51.89%; Activity [7]: Dose-dependent effect; Activity [8]: 34.87%; Activity [9]: 50.48%; Activity [10]: 48.13%; Activity [11]: 21.25%; Activity [12]: 26.93%; Activity [13]: 30.61%; Activity [14]: 21.18%; inhibition [5]: 31%; Activity [15]: 14.85%
8 | COc1cc(-n2nc(-c3ccc(F)cc3)c3cccnc32)cc(OC)c1OC | 51.4 | 41.1 | 76.7 | 56.4 | inhibition [5]: 18%
9 | COC(=O)c1ccc(-n2nc(-c3cc(OC)c(OC)c(OC)c3)c3cccnc32)cc1 | > 100 | > 100 | > 100 | > 100 | –
10 | COc1cc(-c2nn(-c3ccc(Cl)cc3)c3ncccc23)cc(OC)c1OC | > 100 | > 100 | > 100 | > 100 | –
11 | COc1cc(-n2nc(-c3ccc4c(c3)OCO4)c3cccnc32)cc(OC)c1OC | 38.9 | 58.9 | 80.1 | 79.7 | –
12 | COc1ccc(F)cc1-c1nn(-c2cc(OC)c(OC)c(OC)c2)c2ncccc12 | 91.8 | 74.3 | > 100 | 69.9 | –
13 | COc1cc(-n2nc(-c3ccc(C#N)cc3)c3cccnc32)cc(OC)c1OC | 72.5 | 85.9 | 45.9 | 82.5 | –
14 | COc1ccc(-c2nn(-c3cc(OC)c(OC)c(OC)c3)c3ncccc23)cc1OC | 22.7 | > 100 | 96.8 | 28.7 | inhibition [5]: 14%
15 | COc1cc(-n2nc(-c3ccc([N+](=O)[O-])cc3)c3cccnc32)cc(OC)c1OC | 84.5 | > 100 | > 100 | > 100 | –
16 | COc1cc(-n2nc(-c3ccc(Cl)c(Cl)c3)c3cccnc32)cc(OC)c1OC | > 100 | > 100 | > 100 | > 100 | –
17 | COc1cc(-n2nc(-c3ccc(C(=O)NN)cc3)c3cccnc32)cc(OC)c1OC | 21.9 | > 100 | > 100 | 51 | –
18 | COc1ccccc1-c1nn(-c2cc(OC)c(OC)c(OC)c2)c2ncccc12 | > 100 | > 100 | > 100 | > 100 | –
19 | COc1cc(-n2nc(-c3ccc(Cl)cc3)c3cccnc32)cc(OC)c1OC | > 100 | > 100 | 97.6 | 84.3 | –
20 | COc1cc(-c2nn(Cc3ccc(F)cc3)c3ncccc23)cc(OC)c1OC | 92.7 | > 100 | > 100 | 61.5 | –
21 | COc1cc(-n2nc(-c3ccccc3OC(F)(F)F)c3cccnc32)cc(OC)c1OC | 78.9 | > 100 | > 100 | 60.5 | –
22 | COc1ccc(-c2nn(-c3cc(OC)c(OC)c(OC)c3)c3ncccc23)cc1 | > 100 | > 100 | > 100 | > 100 | –
23 | COc1ccc(/C=C\c2cc(OC)c(OC)c(OC)c2)cc1O [COMBRETASTATIN A4] | 0.003 | 0.6 | – | 0.017 | –
24 | COc1ccc(-c2nn(-c3cc(OC)c(OC)c(OC)c3)c3ncccc23)cc1N | 33.4 | 58.1 | > 100 | > 100 | –
25 | COc1cc(-n2nc(-c3ccc(C)cc3)c3cccnc32)cc(OC)c1OC | > 100 | > 100 | > 100 | > 100 | –
26 | COC(=O)c1ccc(-c2nn(-c3cc(OC)c(OC)c(OC)c3)c3ncccc23)cc1 | > 100 | > 100 | > 100 | > 100 | –
27 | COc1cccc(-c2nn(-c3cc(OC)c(OC)c(OC)c3)c3ncccc23)n1 | > 100 | > 100 | > 100 | > 100 | –
